Laboratory results published in the NIST ThermoML archive (doi:10.1016/j.jct.2016.03.032).
± gives the expanded uncertainty stated by the source.

Test: mn = molality of the nth substance listed, in mol/kg
Conditions: 298.15 K, Liquid, Frequency=10 MHz, Single path-length method

NCC(=O)N[C@@H](Cc1ccc(O)cc1)C(=O)NCC(=O)O [glycyl-L-tyrosylglycine] + O
speed of sound [m/s]
Conditions	10000 kPa	20000 kPa	40000 kPa	60000 kPa	80000 kPa	100000 kPa	120000 kPa
m1 = 0.02297	1516.3 ± 0.71	1533.1 ± 0.71	1566.7 ± 0.71	1600.1 ± 0.71	1633.5 ± 0.7	1666.6 ± 0.7	1699.5 ± 0.7
m1 = 0.02401	1516.5 ± 0.71	1533.2 ± 0.71	1566.8 ± 0.71	1600.3 ± 0.71	1633.6 ± 0.7	1666.8 ± 0.7	1699.6 ± 0.69
m1 = 0.02562	1516.7 ± 0.71	1533.5 ± 0.71	1567 ± 0.71	1600.5 ± 0.71	1633.9 ± 0.7	1667 ± 0.7	1699.8 ± 0.7
m1 = 0.02676	1516.8 ± 0.71	1533.6 ± 0.71	1567.2 ± 0.71	1600.7 ± 0.71	1634 ± 0.7	1667.1 ± 0.7	1700 ± 0.7
m1 = 0.02756	1516.9 ± 0.71	1533.7 ± 0.71	1567.3 ± 0.71	1600.8 ± 0.71	1634.1 ± 0.7	1667.3 ± 0.7	1700.1 ± 0.69
m1 = 0.02905	1517 ± 0.71	1533.9 ± 0.71	1567.4 ± 0.71	1601 ± 0.71	1634.3 ± 0.7	1667.5 ± 0.7	1700.3 ± 0.7

NCC(=O)NCC(=O)NCC(=O)O [glycylglycylglycine] + O
speed of sound [m/s]
Conditions	10000 kPa	20000 kPa	40000 kPa	60000 kPa	80000 kPa	100000 kPa	120000 kPa
m1 = 0.03621	1516.9 ± 0.71	1533.8 ± 0.71	1567.4 ± 0.71	1600.8 ± 0.71	1634.2 ± 0.7	1667.4 ± 0.7	1700.2 ± 0.69
m1 = 0.0487	1518.2 ± 0.71	1535 ± 0.71	1568.6 ± 0.71	1602.1 ± 0.71	1635.5 ± 0.7	1668.6 ± 0.7	1701.4 ± 0.7
m1 = 0.06185	1519.5 ± 0.71	1536.3 ± 0.71	1570 ± 0.71	1603.4 ± 0.71	1636.8 ± 0.7	1669.9 ± 0.7	1702.8 ± 0.7
m1 = 0.07503	1520.8 ± 0.71	1537.7 ± 0.71	1571.3 ± 0.71	1604.8 ± 0.71	1638.2 ± 0.7	1671.3 ± 0.7	1704 ± 0.7
m1 = 0.08705	1522.1 ± 0.71	1538.9 ± 0.71	1572.5 ± 0.71	1606.1 ± 0.71	1639.4 ± 0.7	1672.5 ± 0.7	1705.2 ± 0.7
m1 = 0.1005	1523.3 ± 0.71	1540.2 ± 0.71	1573.8 ± 0.71	1607.4 ± 0.71	1640.7 ± 0.71	1673.8 ± 0.7	1706.6 ± 0.7

CC(C)C[C@H](NC(=O)CN)C(=O)NCC(=O)O [glycyl-L-leucylglycine] + O
speed of sound [m/s]
Conditions	10000 kPa	20000 kPa	40000 kPa	60000 kPa	80000 kPa	100000 kPa	120000 kPa
m1 = 0.02682	1517.5 ± 0.71	1534.2 ± 0.71	1567.7 ± 0.71	1601.1 ± 0.71	1634.4 ± 0.7	1667.5 ± 0.7	1700.2 ± 0.69
m1 = 0.03524	1518.6 ± 0.71	1535.4 ± 0.71	1568.9 ± 0.71	1602.3 ± 0.71	1635.6 ± 0.7	1668.7 ± 0.7	1701.4 ± 0.69
m1 = 0.04618	1520.2 ± 0.71	1537 ± 0.71	1570.6 ± 0.71	1604 ± 0.71	1637.2 ± 0.7	1670.2 ± 0.7	1702.9 ± 0.7
m1 = 0.05878	1522.1 ± 0.71	1538.9 ± 0.71	1572.4 ± 0.71	1605.8 ± 0.71	1639 ± 0.7	1672 ± 0.7	1704.7 ± 0.69
m1 = 0.06956	1523.7 ± 0.71	1540.5 ± 0.71	1574 ± 0.71	1607.3 ± 0.71	1640.6 ± 0.7	1673.5 ± 0.7	1706.2 ± 0.69
m1 = 0.07978	1525.2 ± 0.71	1542 ± 0.71	1575.5 ± 0.71	1608.8 ± 0.71	1642 ± 0.7	1674.9 ± 0.7	1707.5 ± 0.69

NCC(=O)N[C@@H](CC(N)=O)C(=O)NCC(=O)O [glycyl-L-asparaginylglycine] + O
speed of sound [m/s]
Conditions	10000 kPa	20000 kPa	40000 kPa	60000 kPa	80000 kPa	100000 kPa	120000 kPa
m1 = 0.01982	1515.6 ± 0.71	1532.4 ± 0.71	1566 ± 0.71	1599.5 ± 0.71	1632.8 ± 0.7	1666 ± 0.7	1698.8 ± 0.69
m1 = 0.02619	1516.3 ± 0.71	1533.1 ± 0.71	1566.7 ± 0.71	1600.2 ± 0.71	1633.5 ± 0.7	1666.7 ± 0.7	1699.6 ± 0.7
m1 = 0.02894	1516.6 ± 0.71	1533.4 ± 0.71	1567.1 ± 0.71	1600.5 ± 0.71	1633.9 ± 0.7	1667 ± 0.7	1699.9 ± 0.7
m1 = 0.03507	1517.3 ± 0.71	1534.1 ± 0.71	1567.8 ± 0.71	1601.3 ± 0.71	1634.6 ± 0.7	1667.8 ± 0.7	–
m1 = 0.03983	1517.8 ± 0.71	1534.6 ± 0.71	1568.3 ± 0.71	1601.8 ± 0.71	1635.1 ± 0.7	1668.3 ± 0.7	–
